The text below walks through data of PubChem BioAssay (NCI).

Molecules are shown by their SMILES.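 1) Cells in 96-well plates. 2) Compound, 48 h, 5 concentrations. 3) Linear interpolation between surrounding doses. 4) Unreached endpoint = highest concentration. At the TGI there is no net growth.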

Common to all, as to experiment: growth of human tumour cells (NCI), 48 h
Assay [1] relates to SK-MEL-2 melanoma.
In assay [2] the test system is SN12C renal.
Assay [3] deals with COLO 205 colon.
The subject of assay [4] is MOLT-4 leukemia.
For assay [5], the system named is SNB-75 CNS.
The test system of assay [6] is HOP-62 NSCLC.
Assay [7] relates to HT29 colon.
Assay [8] has as its system UACC-62 melanoma.
The subject of assay [9] is K-562 leukemia.
The test system of assay [10] is NCI-H522 lung.
The subject of assay [11] is UO-31 renal.
The test system of assay [12] is LOX IMVI melanoma.
The test system of assay [13] is SF-539 CNS.
Assay [14] relates to HL-60(TB) leukemia.
In assay [15] the test system is 786-0 renal.
The subject of assay [16] is DU-145 prostate.
Assay [17] deals with BT-549 breast.
Assay [18] has as its system PC-3 prostate.
Assay [19] relates to MDA-MB-231 breast.

Consider `NC(=O)N/N=C(/Cc1nc2ccc(C(=O)c3ccccc3)cc2[nH]c1=O)C(=O)Nc1ccc(C(F)(F)F)cc1[N+](=O)[O-]`, for which the TGI in [1] is more than 100 µM; in assay [2] it was more than 100 µM; in assay [3], more than 100 µM; in assay [4] it was more than 100 µM; in [5], 97.3 µM; in [6] it was more than 100 µM. The TGI in [7] is more than 100 µM; in assay [8], more than 100 µM; in assay [9] it was more than 100 µM; in [10] it was 76.3 µM; in assay [11], more than 100 µM; in assay [12], more than 100 µM. The TGI in assay [13], in [14] and in assay [15] was more than 100 µM each time.

Turning to `COC(=O)c1c[nH]c2c1-c1cc(C(=O)OCc3ccccc3)n(S(=O)(=O)c3ccc(C)cc3)c1C(=O)C2=O`, the TGI in [1] came out at 0.521 µM; in assay [2] it was 0.481 µM; in assay [3] it was 2.08 µM; in assay [16] it was 0.287 µM; in assay [5] it was 0.389 µM; in [17], 0.342 µM. Also, the TGI in assay [6] was 1.06 µM; in assay [7], 0.418 µM; in [8], 0.363 µM; in [9], more than 100 µM; in [10], 0.607 µM; in [11], 1.38 µM. In addition, the TGI in [12] was 0.375 µM; in assay [18], 1.19 µM; in assay [13], 0.471 µM; in [19], 0.401 µM; in assay [14], more than 100 µM; in assay [15], 1.02 µM.

Take `CCOC(=O)[C@H]1Nc2ccc([N+](=O)[O-])cc2C2c3ccccc3CC21` (stereo not given in full): the TGI in [1] was 72.3 µM; in assay [2], 43.2 µM; in assay [3], more than 100 µM; in assay [4], 69.1 µM; in [5], more than 100 µM; in assay [6], 39 µM. The TGI in assay [7] stood at 35.4 µM; in [8], 30.6 µM; in [9], 52.2 µM; in assay [10], 29.3 µM; in assay [11], 44 µM; in [12] it was 33.2 µM. Moreover, the TGI turned out to be 31.8 µM in [13] and 43.9 µM in [15].

For the compound `COc1ccc2c(c1)CC1c3c(ccc(OC)c3O)CC2N1C` (stereo not given), the TGI was 37.1 µM in assay [1]; more than 100 µM in [2]; 34.8 µM in [3]; 73.8 µM in assay [4]; more than 100 µM in [5]; more than 100 µM in assay [6]. Further, the TGI is 57.5 µM in assay [7]; more than 100 µM in assay [8]; 58.9 µM in assay [9]; 37.9 µM in [10]; more than 100 µM in [11]; 38.9 µM in assay [12]. The results for the TGI in assay [13], in [14] and in assay [15] were 54.6 µM, 40.3 µM and more than 73.3 µM, respectively.

Consider `CC(=O)C(CN(C)C)C(c1ccccc1)c1c(O)c2ccccc2oc1=O` (stereo not given), for which the TGI in assay [1] is more than 100 µM; in [2], more than 100 µM; in assay [3], more than 100 µM; in assay [4], more than 100 µM; in assay [5], 88.5 µM; in [6], more than 100 µM. Further, the TGI in assay [7], in assay [8], in assay [9], in assay [10], in assay [12] and in [13] was more than 100 µM in each case. The TGI in assay [14] and in assay [15] was more than 100 µM each time.

With `O=C(O)CN1CCN(CC(=O)N2CCN(C(=O)OCc3ccccc3)CC2)CCN(CC(=O)O)CCN(CC(=O)N2CCN(C(=O)OCc3ccccc3)CC2)CC1`, the TGI in assay [1], in assay [2], in [3], in [4], in assay [16] and in assay [5] was more than 100 µM throughout. Also, the TGI in [17], in assay [6], in [7], in [8], in [9] and in assay [10] was more than 100 µM throughout. Moreover, the TGI in assay [11], in assay [12], in assay [18], in assay [13], in assay [19] and in assay [14] was more than 100 µM in each case. The same compound showed a TGI in assay [15] of more than 100 µM.

`CCCCN[C@H]1C2C3CC4C5CC(C42)C1(C)C53` (stereo not given in full): the TGI in assay [1], in assay [2], in [3], in assay [4], in assay [5] and in assay [6] was more than 100 µM each time. The TGI in assay [7], in [8], in assay [9], in assay [10], in [11] and in assay [12] was more than 100 µM throughout. Besides, the TGI in assay [13], in assay [14] and in assay [15] was more than 100 µM throughout.

Turning to `O=S(=O)(c1ccccc1)n1cc(C[P+](c2ccccc2)(c2ccccc2)c2ccccc2)c2ccccc21`, the TGI worked out at 5.87 µM in [1]; 19.8 µM in assay [2]; 4.78 µM in assay [3]; 23.6 µM in assay [4]; 12.6 µM in assay [5]; 12.6 µM in assay [6]. Besides, the TGI in assay [7] was 13.4 µM; in assay [8] it was 17.8 µM; in [9], 14.2 µM; in assay [10], 11.3 µM; in assay [11], 13.1 µM; in assay [12] it was 13.6 µM. Also, the figures for the TGI in assay [13], in assay [14] and in assay [15] were 16.8 µM, 6.84 µM and 16.3 µM, respectively.

`Cc1cc(=O)[nH]c(NNC(C#N)c2c(O)ccc3ccccc23)n1` (stereo not given): the TGI amounted to 27.8 µM in assay [1]; 38.2 µM in assay [2]; 57 µM in assay [3]; 48.6 µM in [4]; 55.9 µM in assay [5]; 73.8 µM in assay [6]. Besides, the TGI in assay [7] was 88.4 µM; in [8], 10.1 µM; in assay [9] it was more than 100 µM; in assay [10], 23.7 µM; in assay [11], 9.92 µM; in assay [12], 22.4 µM. Moreover, the TGI came out at 13.7 µM in assay [13], 8.27 µM in assay [14] and 79.8 µM in assay [15].
